Laboratory results from US20020193374A1, “Reagents and methods for the diagnosis of CMV dissemination” (priority 2000, published 2002).

Key:
[1] = target: T1, US28 (Human cytomegalovirus, UniProt P69332); assay: inhibition of 125I-fractalkine binding to US28 expressing cells; parameters: a mouse cell line stably expressing transfected US28 cDNA under the control of a CMV promoter; expressed in transfected cells; species or system human cytomegalovirus (CMV)
Experimental: The US28 expressing cells used in most assays consist of a mouse cell line stably expressing transfected US28 cDNA under the control of a CMV promoter. These cells were cultured in IMDM-5% FBS, and harvested when the concentration was between 0.5-1.0×10^6 cells/mL. Some assays were performed with adherent human 293 cells (US28-293 cells) or membranes. The cells were centrifuged and resuspended in assay buffer (20 mM HEPES, 140 mM NaCl, 1 mM CaCl2, 5 mM MgCl2, and with 0.2% bovine serum albumin) to a concentration of 5.6×10^6 cells/mL. Using the Multi-Probe automated system, set up with 8 assay plates at a time, first 0.09 mL of cells was added to the assay plates containing the compounds. The final concentration of the compounds was 5 μg/mL each (1 μg/mL Comgenex). Then 0.09 mL of ^125I-fractalkine diluted in assay buffer (final concentration ˜[…], with ˜30,000 cpm per well) was added, the plates sealed and incubated for approximately 3 hours at 4 degrees C. on a shaker platform. The assay plates were harvested using Packard filter plates, pre-soaked in PEI solution, on the vacuum harvest apparatus. Scintillation fluid (35 μL) was added to all wells, the plates were sealed and counted in a Top Count scintillation counter. […]
S-(−)-IBZM (from the RBI division of Sigma Chemical Co., St. Louis, Mo., USA, Catalog No. I-139) was evaluated in the assays described in Examples 1 and 2. […]

[2] = target: T1, US28; assay: reversibility of binding to US28, competition assay with fractalkine; parameters: a mouse cell line stably expressing transfected US28 cDNA under the control of a CMV promoter; expressed in transfected cells; species or system human cytomegalovirus (CMV); conditions: pre-incubated with US28 expressing cells at 0-10 μg/mL, removed by competition with fractalkine (FIG. 3)
Experimental: FIG. 3 illustrates the reversibility of IBZM binding to US28. In this figure, IBZM is pre-incubated with US28 expressing cells (at concentrations of 0-10 μg/mL) and removed by competition with fractalkine.
In this assay, IBZM is pre-incubated with US28 expressing cells (at concentrations of 0-10 μg/mL) and removed by competition with fractalkine (see FIG. 3).

[3] = tested on: chemokine receptors; assay: binding specificity among chemokine receptors tested; conditions: all chemokine receptors tested
[4] = target: T1, US28; assay: cytoplasmic calcium mobilization in US28-293 cells; assay type: cell-based, human cytomegalovirus (CMV); parameters: expressed in transfected cells; host or cells: human 293 cells (US28-293 cells); conditions: compound added before fractalkine (FIG. 2)
Experimental: For each test, 1×10^6 cells were incubated at 37° C. in the cuvette of a PTI spectrometer, and the ratio of 410/490 nm emission plotted over time (typically 2-3 minutes), with compounds added at 5 seconds, followed by fractalkine at 60 seconds. […] Compounds which inhibited fractalkine binding were tested in this assay for the effects on Ca^2+ in this system.
S-(−)-IBZM (from the RBI division of Sigma Chemical Co., St. Louis, Mo., USA, Catalog No. I-139) was evaluated in the assays described in Examples 1 and 2. The IC50 value was 0.6 μM.

T1 sequence (P69332 whole entry): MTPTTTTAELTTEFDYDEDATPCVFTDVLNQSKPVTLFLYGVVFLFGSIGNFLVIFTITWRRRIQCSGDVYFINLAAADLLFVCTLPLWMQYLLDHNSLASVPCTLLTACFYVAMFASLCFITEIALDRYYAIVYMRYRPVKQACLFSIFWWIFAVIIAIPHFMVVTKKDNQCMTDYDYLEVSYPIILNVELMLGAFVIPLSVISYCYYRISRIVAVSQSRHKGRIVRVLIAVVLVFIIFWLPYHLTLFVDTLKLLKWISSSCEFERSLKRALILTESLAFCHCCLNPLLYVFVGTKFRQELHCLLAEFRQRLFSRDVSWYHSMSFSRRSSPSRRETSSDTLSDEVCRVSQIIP

CCN1CCC[C@H]1CNC(=O)c1c(OC)ccc(I)c1O [IBZM, S(−)-3-Iodo-2-hydroxy-6-methoxy-N[(1-ethyl-2-pyrrolidinyl)methyl]benzamide]
IC50 [1]: 600 nM
reversibility of binding to US28 [2]: reversible
specificity of binding among chemokine receptors [3]: bind specifically to US28
mode of action in calcium mobilization [4]: competitive agonist
